Results: ChEMBL document CHEMBL5154730, “A covalent strategy to target intrinsically disordered proteins: Discovery of novel tau aggregation inhibitors” (Eur J Med Chem, 2022)
Calls of active or inactive are those of the source. No cut-off for these calls is given here.

What was measured:
[1] = species on record: Homo sapiens; assay: Inhibition of hexahistidine-tagged tau K18 domain C291S/C322S mutant (unknown origin) expressed in Escherichia coli BL21 (DE3) assessed as inhibition of heparin-induced aggregation by measuring protein aggregation rate at 10 uM by thioflavin-T fluorescence assay relative to control; design: scale not given: the % may be the effect or the level left
[2] = biological target: Microtubule-associated protein tau (Homo sapiens) (UniProt P10636); assay: Inhibition of tau K18 domain (unknown origin) assessed as inhibition of heparin-induced aggregation by measuring protein aggregation rate at 10 uM by thioflavin-T fluorescence assay relative to control; design: scale not given: the % may be the effect or the level left
Chain of Microtubule-associated protein tau (Homo sapiens) (P10636 whole entry, the tested form may be a part): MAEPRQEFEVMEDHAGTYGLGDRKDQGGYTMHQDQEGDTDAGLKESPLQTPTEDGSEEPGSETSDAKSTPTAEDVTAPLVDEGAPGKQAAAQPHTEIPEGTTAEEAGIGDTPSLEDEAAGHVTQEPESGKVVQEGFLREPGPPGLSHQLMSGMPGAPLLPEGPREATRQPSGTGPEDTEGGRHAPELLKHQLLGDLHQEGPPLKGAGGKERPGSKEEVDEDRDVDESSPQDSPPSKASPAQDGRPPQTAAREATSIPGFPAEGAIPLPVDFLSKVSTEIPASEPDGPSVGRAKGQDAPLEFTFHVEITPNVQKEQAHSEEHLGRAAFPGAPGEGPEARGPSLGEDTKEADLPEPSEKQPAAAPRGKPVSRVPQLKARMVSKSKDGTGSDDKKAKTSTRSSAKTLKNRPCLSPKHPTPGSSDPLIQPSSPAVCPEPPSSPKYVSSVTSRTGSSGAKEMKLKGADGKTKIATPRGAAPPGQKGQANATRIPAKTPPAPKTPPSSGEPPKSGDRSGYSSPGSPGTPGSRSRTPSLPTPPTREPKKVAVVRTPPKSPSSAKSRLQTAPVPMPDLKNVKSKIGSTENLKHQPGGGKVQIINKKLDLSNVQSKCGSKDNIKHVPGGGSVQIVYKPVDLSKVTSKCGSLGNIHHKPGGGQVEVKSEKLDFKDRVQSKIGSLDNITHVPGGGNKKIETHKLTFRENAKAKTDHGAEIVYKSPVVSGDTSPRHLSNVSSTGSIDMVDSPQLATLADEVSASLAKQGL

[3] = biological target: Microtubule-associated protein tau (Homo sapiens) (UniProt P10636); assay: Inhibition of tau K18 domain (unknown origin) assessed as inhibition of heparin-induced aggregation by measuring protein aggregation rate at 100 uM by thioflavin-T fluorescence assay relative to control; design: scale not given: the % may be the effect or the level left
[4] = biological target: Microtubule-associated protein tau (Homo sapiens) (UniProt P10636); assay: Inhibition of tau K18 domain (unknown origin) assessed as inhibition of heparin-induced aggregation by measuring protein aggregation rate at 50 uM by thioflavin-T fluorescence assay relative to control; design: scale not given: the % may be the effect or the level left
[5] = biological target: Microtubule-associated protein tau (Homo sapiens) (UniProt P10636); assay: Inhibition of tau K18 domain (unknown origin) assessed as inhibition of heparin-induced aggregation by measuring protein aggregation rate at 250 uM by thioflavin-T fluorescence assay relative to control; design: scale not given: the % may be the effect or the level left
[6] = biological target: Microtubule-associated protein tau (Homo sapiens) (UniProt P10636); assay: Binding affinity to tau K18 domain (unknown origin) assessed as cysteine labelling efficiency by measuring free thiol ratio at 200 uM incubated for 24 hrs by Ellmans method relative to control
[7] = biological target: Microtubule-associated protein tau (Homo sapiens) (UniProt P10636); assay: Inhibition of tau K18 domain (unknown origin) assessed as inhibition of heparin-induced aggregation by measuring reduction in intensity at 215 nm with random coil conformation by CD spectrometry
[8] = biological target: Microtubule-associated protein tau (Homo sapiens) (UniProt P10636); assay: Inhibition of tau K18 domain (unknown origin) assessed as inhibition of heparin-induced aggregation by measuring protein aggregation rate at 500 uM by thioflavin-T fluorescence assay relative to control; design: scale not given: the % may be the effect or the level left
[9] = biological target: Microtubule-associated protein tau (Homo sapiens) (UniProt P10636); assay: Inhibition of tau K18 domain (unknown origin) assessed as inhibition of heparin-induced aggregation by measuring protein aggregation rate at 1000 uM by thioflavin-T fluorescence assay relative to control; design: scale not given: the % may be the effect or the level left
[10] = biological target: Microtubule-associated protein tau (Homo sapiens) (UniProt P10636); assay: Covalent binding affinity to tau K18 domain monomer (unknown origin) assessed as labelling at Cys291 residue incubated for 24 hrs and measured following trypsin digestion by LC-MS/MS analysis
[11] = biological target: Microtubule-associated protein tau (Homo sapiens) (UniProt P10636); assay: Inhibition of tau K18 domain (unknown origin) assessed as inhibition of heparin-induced aggregation by measuring increase in brightness by transmission electron microscopy
[12] = biological target: Microtubule-associated protein tau (Homo sapiens) (UniProt P10636); assay: Covalent binding affinity to tau K18 domain monomer (unknown origin) assessed as labelling at Cys322 residue incubated for 24 hrs and measured following trypsin digestion by LC-MS/MS analysis
[13] = biological target: Microtubule-associated protein tau (Homo sapiens) (UniProt P10636); assay: Binding affinity to tau K18 domain (unknown origin) assessed as cysteine labelling at 250 uM incubated for 18 hrs by 15N-HSQC NMR spectroscopy

| Activity [1] [%] | Activity [2] [%] | Activity [6] [%] | Compound | also measured |
| --- | --- | --- | --- | --- |
| 83.4 | 29.2 | 44.7 | C=CS(=O)(=O)Cc1ccc(-c2ccc(/C=C3/SC(=S)N(CCC(=O)OCC)C3=O)o2)cc1 | Activity [3]: 60.3%; Activity [4]: 75.4%; Activity [5]: 50.8%; inhibition [7]: Active; Activity [8]: 40.1%; Activity [9]: 29.2% |
| – | 97.3 | – | C=CS(=O)(=O)Cc1ccc(C(=O)c2ccccc2)cc1 | – |
| – | 96.9 | – | C=CS(=O)(=O)NCc1cc(C(F)(F)F)cc(C(F)(F)F)c1 | – |
| 86.7 | 39.8 | 66.3 | C=CS(=O)(=O)Cc1cc(C(F)(F)F)cc(C(F)(F)F)c1 | Activity [13]: Active; Activity [12]: Active; Activity [10]: Active; Activity [3]: 75.3%; Activity [4]: 94.4%; Activity [5]: 62.9%; Activity [8]: 43.1%; Activity [9]: 39.8% |

Continued, compound first:

| Compound | Activity [1] [%] | Activity [2] [%] | Activity [6] [%] | also measured |
| --- | --- | --- | --- | --- |
| C=CS(=O)(=O)Nc1ccc(C(=O)NCCCCCC(=O)N[C@@H](CCC(=O)O)C(=O)N[C@@H](C)C(=O)N[C@@H](C)C(=O)N[C@@H](CCC(=O)O)C(=O)N[C@@H](C)C(=O)N[C@@H](CCCCN)C(=O)N[C@@H](C)C(=O)N[C@@H](C)C(=O)NC(CCCCn2cc(CNC(=O)[C@H](Cc3c[nH]c4ccccc34)NC3C(=O)c4ccccc4C(=O)C3Cl)nn2)C(=O)O)cc1 (stereo partly drawn) | 57.9 | 15.7 | 39.7 | Activity [10]: Active; inhibition [11]: Active |
| C=CS(N)(=O)=O | – | 110 | – | – |
| H-DVWMINKKRK-OH | 29.4 | 38.1 | – | – |
| C=CS(=O)(=O)c1ccccc1 | – | 97.7 | – | – |
| C=CS(=O)(=O)Cc1cccc2cccnc12 | – | 102 | – | – |
| C=CS(=O)(=O)Cc1c2ccccc2cc2ccccc12 | 69.4 | 21.3 | 34.4 | Activity [12]: Active; Activity [10]: Active; Activity [3]: 72%; Activity [4]: 78.2%; Activity [5]: 54.1%; Activity [8]: 43.9%; Activity [9]: 21.3% |
| C=CS(=O)(=O)c1cc(C(F)(F)F)cc(C(F)(F)F)c1 | – | 107 | – | – |
| C=CS(=O)(=O)NCCNC(=O)O[C@H]1CC[C@@]2(C)C(=CC[C@H]3[C@@H]4CC[C@H]([C@H](C)CCCC(C)C)[C@@]4(C)CC[C@@H]32)C1 | 100 | 39.7 | 56.7 | inhibition [11]: Active |
| C=CS(=O)(=O)Cc1ccc2ccccc2c1 | – | 111 | – | – |
